By IC50 is commonly meant the concentration at which inhibition is half-maximal.

In one experiment the target is T1, TEC (Homo sapiens, UniProt P42680).
T1 sequence (P42680 1-631): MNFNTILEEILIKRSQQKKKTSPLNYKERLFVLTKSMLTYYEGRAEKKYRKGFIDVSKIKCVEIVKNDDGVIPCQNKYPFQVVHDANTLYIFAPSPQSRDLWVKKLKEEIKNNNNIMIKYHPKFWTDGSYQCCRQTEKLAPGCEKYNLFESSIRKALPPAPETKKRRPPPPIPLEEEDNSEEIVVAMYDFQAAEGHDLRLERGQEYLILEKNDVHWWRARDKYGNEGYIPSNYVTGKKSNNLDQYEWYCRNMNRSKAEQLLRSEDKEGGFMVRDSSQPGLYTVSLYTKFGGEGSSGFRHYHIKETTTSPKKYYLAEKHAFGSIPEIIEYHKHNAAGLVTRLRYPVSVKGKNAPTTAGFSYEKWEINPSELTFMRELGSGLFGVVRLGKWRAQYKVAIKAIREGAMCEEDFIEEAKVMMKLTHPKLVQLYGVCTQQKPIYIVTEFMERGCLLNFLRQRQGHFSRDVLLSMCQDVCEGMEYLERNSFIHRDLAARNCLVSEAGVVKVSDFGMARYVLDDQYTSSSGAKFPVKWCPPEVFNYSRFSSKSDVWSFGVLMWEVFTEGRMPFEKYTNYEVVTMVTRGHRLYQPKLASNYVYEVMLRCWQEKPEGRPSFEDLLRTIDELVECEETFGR
Kind of experiment: Inhibition of a panel of kinases, in vitro HotSpot kinase assay: TEC. The experiment is classed as biochemical. The settings on record: D-compounds panel data; 1 μM ATP. Here is the method:
The degree of inhibition of a panel of kinases is determined using the in vitro HotSpot kinase assay (purified enzymes, ^33P-ATP, an appropriate substrate and 1 μM ATP).

The target in the next experiment is T2, JAK3 (Homo sapiens, UniProt P52333).
T2 sequence (P52333 1-1124): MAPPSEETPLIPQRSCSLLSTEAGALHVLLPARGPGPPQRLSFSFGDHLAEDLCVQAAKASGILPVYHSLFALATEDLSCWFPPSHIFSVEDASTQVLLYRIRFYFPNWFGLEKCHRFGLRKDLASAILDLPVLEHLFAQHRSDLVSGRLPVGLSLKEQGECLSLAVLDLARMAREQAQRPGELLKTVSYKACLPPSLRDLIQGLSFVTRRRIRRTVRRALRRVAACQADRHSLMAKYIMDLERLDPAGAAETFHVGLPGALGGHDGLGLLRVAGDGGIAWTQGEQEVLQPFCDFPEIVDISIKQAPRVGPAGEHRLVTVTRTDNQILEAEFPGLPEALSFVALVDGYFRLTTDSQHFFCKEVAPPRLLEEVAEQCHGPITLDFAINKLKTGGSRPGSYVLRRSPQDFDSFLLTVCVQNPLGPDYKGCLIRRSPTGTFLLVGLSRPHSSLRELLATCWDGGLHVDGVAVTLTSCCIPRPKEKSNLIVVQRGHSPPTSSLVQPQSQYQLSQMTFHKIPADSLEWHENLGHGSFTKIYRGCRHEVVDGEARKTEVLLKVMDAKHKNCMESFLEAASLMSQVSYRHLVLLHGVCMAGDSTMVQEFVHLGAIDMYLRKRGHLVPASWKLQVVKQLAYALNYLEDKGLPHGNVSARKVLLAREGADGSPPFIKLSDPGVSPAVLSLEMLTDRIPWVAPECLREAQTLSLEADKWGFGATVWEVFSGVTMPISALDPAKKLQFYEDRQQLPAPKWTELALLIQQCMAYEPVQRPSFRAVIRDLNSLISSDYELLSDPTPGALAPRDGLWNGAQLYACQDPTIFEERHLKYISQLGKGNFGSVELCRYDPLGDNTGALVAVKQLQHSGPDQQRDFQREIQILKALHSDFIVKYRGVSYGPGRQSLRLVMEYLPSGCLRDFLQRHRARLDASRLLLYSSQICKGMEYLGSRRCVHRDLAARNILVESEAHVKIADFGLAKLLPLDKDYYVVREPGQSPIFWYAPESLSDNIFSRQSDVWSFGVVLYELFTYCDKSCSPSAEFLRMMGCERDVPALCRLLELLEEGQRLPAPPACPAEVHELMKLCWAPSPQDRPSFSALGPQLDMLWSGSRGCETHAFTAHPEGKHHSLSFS
Kind of experiment: Inhibition of a panel of kinases, in vitro HotSpot kinase assay: JAK3. The experiment is classed as biochemical. The settings on record: D-compounds panel data; 1 μM ATP; read-out: IC50 JAK3.

`Cc1cc(Nc2nc(N3CCC[C@@H](NC(=O)N4Cc5ccccc5C4=O)C3)cnc2C(N)=O)sn1` [Example D-15, N-[(3R)-1-{5-carbamoyl-6-[(3-methyl-1,2-thiazol-5-yl)amino]pyrazin-2-yl}piperidin-3-yl]-1-oxo-2,3-dihydro-1H-isoindole-2-carboxamide]: the IC50 against TEC was in the range of 10 to 100 nM; on JAK3 it was 1000 to 10000 nM.

As for `CCN(CC)c1ccc(C(=O)N[C@@H]2CCCN(c3cnc(C(N)=O)c(Nc4cnn(C)c4)n3)[C@@H]2C)cc1` [Example D-218, 5-[(2R,3R)-3-[4-(diethylamino)benzamido]-2-methylpiperidin-1-yl]-3-[(1-methyl-1H-pyrazol-4-yl)amino]pyrazine-2-carboxamide], the IC50 against TEC was no more than 10 nM; on JAK3 it was 1000 to 10000 nM.

With `C[C@@H]1[C@H](NC(=O)c2ccc(C3CC3)cc2Cl)CCCN1c1cnc(C(N)=O)c(Nc2ccc(N3CCN(C)CC3)cc2)n1` [Example D-16, 5-[(2R,3R)-3-(2-chloro-4-cyclopropylbenzamido)-2-methylpiperidin-1-yl]-3-{[4-(4-methylpiperazin-1-yl)phenyl]amino}pyrazine-2-carboxamide], the 50% inhibitory concentration (IC50) at TEC was in the range of 10 to 100 nM; at JAK3, 1000 to 10000 nM.

On to `Cc1cc(Nc2nc(N3CCC[C@@H](c4ncc(-c5ccccc5)[nH]4)C3)cnc2C(N)=O)sn1` [Example D-171, 3-[(3-methyl-1,2-thiazol-5-yl)amino]-5-[(3R)-3-(5-phenyl-1H-imidazol-2-yl)piperidin-1-yl]pyrazine-2-carboxamide], for which the concentration for half-maximal inhibition (IC50) at TEC and at JAK3 was 100 to 1000 nM in each case.

Regarding `C[C@@H]1[C@H](NC(=O)c2ccc(C3(C(F)(F)F)CC3)cc2)CCCN1c1cnc(C(N)=O)c(Nc2cnn(C)c2)n1` [Example D-221, 3-[(1-Methyl-1H-pyrazol-4-yl)amino]-5-[(2R,3R)-2-methyl-3-{4-[1-(trifluoromethyl)cyclopropyl]benzamido}piperidin-1-yl]pyrazine-2-carboxamide], the IC50 was 10 to 100 nM against TEC and greater than 10000 nM on JAK3.

Regarding `C[C@@H]1[C@H](NC(=O)c2ccc(C3(O)CCCC3)cc2)CCCN1c1cnc(C(N)=O)c(Nc2cnn(C)c2)n1` [Example D-212, 5-[(2R,3R)-3-[4-(1-hydroxycyclopentyl)benzamido]-2-methylpiperidin-1-yl]-3-[(1-methyl-1H-pyrazol-4-yl)amino]pyrazine-2-carboxamide], the IC50 was no more than 10 nM against TEC and 100 to 1000 nM on JAK3.

For `C[C@@H]1[C@H](NC(=O)N(C)C)CCCN1c1cnc(C(N)=O)c(Nc2ccc(N3CCN(C4CCCC4)CC3)cc2)n1` [Example D-182, 3-{[4-(4-cyclopentylpiperazin-1-yl)phenyl]amino}-5-[(2R,3R)-3-[(dimethylcarbamoyl)amino]-2-methylpiperidin-1-yl]pyrazine-2-carboxamide], the IC50 against TEC and at JAK3 was 100 to 1000 nM in each case.

As to `Cc1cc(Nc2cc(N3CCC[C@@H](NC(=O)N(C)C)[C@H]3C)cnc2C(N)=O)sn1` [Example D-175, 5-[(2R,3R)-3-[(dimethylcarbamoyl)amino]-2-methylpiperidin-1-yl]-3-[(3-methyl-1,2-thiazol-5-yl)amino]pyridine-2-carboxamide], the IC50 against TEC and at JAK3 was 1000 to 10000 nM throughout.

Regarding `Cn1cc(Nc2nc(N3CCC[C@@H](n4ccc5cc(C6CC6)ncc5c4=O)C3)cnc2C(N)=O)cn1` [Example D-225, 5-[(3R)-3-(6-cyclopropyl-1-oxo-1,2-dihydro-2,7-naphthyridin-2-yl)piperidin-1-yl]-3-[(1-methyl-1H-pyrazol-4-yl)amino]pyrazine-2-carboxamide], the IC50 on TEC was no more than 10 nM; on JAK3, 100 to 1000 nM.

Regarding `C[C@@H]1[C@H](NC(=O)c2ccc(C(C)(C)C)cc2F)CCCN1c1cnc(C(N)=O)c(Nc2cnn(C)c2)n1` [Example D-223, 5-[(2R,3R)-3-(4-tert-butyl-2-fluorobenzamido)-2-methylpiperidin-1-yl]-3-[(1-methyl-1H-pyrazol-4-yl)amino]pyrazine-2-carboxamide], the IC50 on TEC was 10 to 100 nM; on JAK3, greater than 10000 nM.

Regarding `C[C@@H]1[C@H](NC(=O)c2ccc(C3CC3)c(Cl)c2)CCCN1c1cnc(C(N)=O)c(Nc2ccc(N3CCN(C)CC3)cc2)n1` [Example D-17, 5-[(2R,3R)-3-(3-chloro-4-cyclopropylbenzamido)-2-methylpiperidin-1-yl]-3-{[4-(4-methylpiperazin-1-yl)phenyl]amino}pyrazine-2-carboxamide], the IC50 on TEC is 100 to 1000 nM; at JAK3, 1000 to 10000 nM.

Regarding `C[C@@H]1[C@H](NC(=O)c2ccc(C(C)(C)C)cn2)CCCN1c1cnc(C(N)=O)c(Nc2cnn(C)c2)n1` [Example D-208, 5-[(2R,3R)-3-(5-tert-butylpyridine-2-amido)-2-methylpiperidin-1-yl]-3-[(1-methyl-1H-pyrazol-4-yl)amino]pyrazine-2-carboxamide], the IC50 at TEC lay in the range of 10 to 100 nM; at JAK3, 1000 to 10000 nM.

Consider `CC(C)c1ccc(C(=O)N[C@@H]2CCCN(c3cnc(C(N)=O)c(Nc4cnn(C)c4)n3)[C@@H]2C)cc1` [Example D-197, 3-[(1-methyl-1H-pyrazol-4-yl)amino]-5-[(2R,3R)-2-methyl-3-[4-(propan-2-yl)benzamido]piperidin-1-yl]pyrazine-2-carboxamide], for which the values for the IC50 against TEC and on JAK3 were 10 to 100 nM and 1000 to 10000 nM, respectively.

For the compound `C[C@@H]1[C@H](NC(=O)c2ccc(C3CC3)cc2)CCCN1c1cnc(C(N)=O)c(Nc2cnn(CCN(C)C)c2)n1` [Example D-187, 5-[(2R,3R)-3-(4-cyclopropylbenzamido)-2-methylpiperidin-1-yl]-3-({1-[2-(dimethylamino)ethyl]-1H-pyrazol-4-yl}amino)pyrazine-2-carboxamide], the values for the IC50 on TEC and at JAK3 were 100 to 1000 nM and 1000 to 10000 nM, respectively.

Take `C[C@@H]1[C@H](NC(=O)c2ccc(S(F)(F)(F)(F)F)cc2)CCCN1c1cnc(C(N)=O)c(Nc2cnn(C)c2)n1` [Example D-230, 3-[(1-methyl-1H-pyrazol-4-yl)amino]-5-[(2R,3R)-2-methyl-3-[4-(pentafluoro-λ^6-sulfanyl)benzamido]piperidin-1-yl]pyrazine-2-carboxamide]: the IC50 against TEC was 10 to 100 nM; at JAK3, greater than 10000 nM.

`C[C@@H]1[C@H](NC(=O)c2ccc(C3CC3)nc2)CCCN1c1cnc(C(N)=O)c(Nc2cnn(C)c2)n1` [Example D-18, 5-[(2R,3R)-3-(6-cyclopropylpyridine-3-amido)-2-methylpiperidin-1-yl]-3-[(1-methyl-1H-pyrazol-4-yl)amino]pyrazine-2-carboxamide]: the IC50 is 10 to 100 nM on TEC and 1000 to 10000 nM at JAK3.

For `Cc1cc(Nc2nc(N3CCC[C@@H](c4ncc(-c5ccc(C6CC6)cc5)[nH]4)[C@H]3C)cnc2C(N)=O)sn1` [Example D-186, 5-[(2R,3R)-3-[5-(4-cyclopropylphenyl)-1H-imidazol-2-yl]-2-methylpiperidin-1-yl]-3-[(3-methyl-1,2-thiazol-5-yl)amino]pyrazine-2-carboxamide], the figures for the IC50 on TEC and at JAK3 were 100 to 1000 nM and 1000 to 10000 nM, respectively.

`C[C@@H]1[C@H](NC(=O)c2ccc(C3CC3)cc2)CCCN1c1cnc(C(N)=O)c(Nc2ccc(OC3CCN4CCCC4C3)cc2)n1` (stereo partly drawn) [Example D-211, 5-[(2R,3R)-3-(4-cyclopropylbenzamido)-2-methylpiperidin-1-yl]-3-{[4-(octahydroindolizin-7-yloxy)phenyl]amino}pyrazine-2-carboxamide]: the 50% inhibitory concentration (IC50) is no more than 10 nM on TEC and 100 to 1000 nM at JAK3.

These data come from US20210070748A1, “INHIBITORS OF BRUTONS TYROSINE KINASE” (Pharmacyclics LLC, priority 2015, published 2021).
